Reference: US9499550B2 (BRISTOL-MYERS SQUIBB COMPANY, priority 2012, dated 2016)
Read-outs that look alike come from different tables or passages of the source.

Key:
[1] = system: HCV genotype 1a (H77 strain) replicon in HUH-7 cells; experiment: HCV replicon luciferase reporter assay, genotype 1a; type: cell-based; conditions: Hepatitis C virus, Huh-7, 72 h, HCV genotype 1a replicon luciferase assay, 3 days incubation
Method in brief: (§1)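 Replicon inhibition for both genotypes was measured as Renilla luciferase signal (EnduRen, 7.5 μM final, 2 h) after 3-day, 37° C exposure of replicon-bearing HUH-7 cells in 4% FCS DMEM, 0.5% DMSO. The 1b construct carries S1179I; the 1a H77 construct carries P1496L and S2204I. Twenty-point, 3-fold dilutions were fitted four-parametrically for EC50, and CC50 was taken from multiplexed Cell Titer-Blue.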

[2] = system: HCV genotype 1b (Con1) replicon in HUH-7 cells; experiment: HCV replicon luciferase reporter assay, genotype 1b; type: cell-based; conditions: Hepatitis C virus, Huh-7, 72 h, HCV genotype 1b replicon luciferase assay, 3 days incubation
Method in brief: as §1

[3] = range class, read-out: LE_1a (EC50, range)
[4] = range class, read-out: LE_1b (EC50, range)

SMILES | EC50 [1, 3] | EC50 [2, 4] | EC50 ([1]; read-out: LE_1a (EC50)) | EC50 ([2]; read-out: LE_1b (EC50))
COc1cc(F)cc2c(O[C@@H]3C[C@H]4C(=O)N[C@]5(C(=O)NS(=O)(=O)C6CC6)C[C@H]5/C=C\CC[C@H](C)C[C@@H](C)[C@H](NC(=O)O[C@@H]5C[C@@H]6C[C@@H]6C5)C(=O)N4C3)nccc12 [Compound 3167, (1R,3r,5S)-bicyclo[3.1.0]hexan-3-yl((2R,6S,7R,9S,13aS,14aR,16aS,Z)-14a-((cyclopropylsulfonyl)carbamoyl)-2-((7-fluoro-5-methoxyisoquinolin-1-yl)oxy)-7,9-dimethyl-5,16-dioxo-1,2,3,5,6,7,8,9,10,11,13a,14,14a,15,16,16a-hexadecahydrocyclopropa[e]pyrrolo[1,2-a][1,4]diazacyclopentadecin-6-yl)carbamate] | 4.82 to 103 nM | < 5.46 nM | – | –
COc1cc(F)cc2c(O[C@@H]3C[C@H]4C(=O)N[C@]5(C(=O)NS(=O)(=O)C6CC6)C[C@H]5/C=C\CC[C@@H](C)C[C@@H](C)[C@H](NC(=O)O[C@@H]5C[C@@H]6C[C@@H]6C5)C(=O)N4C3)nccc12 [Compound 3168, (1R,3r,5S)-bicyclo[3.1.0]hexan-3-yl((2R,6S,7R,9R,13aS,14aR,16aS,Z)-14a-((cyclopropylsulfonyl)carbamoyl)-2-((7-fluoro-5-methoxyisoquinolin-1-yl)oxy)-7,9-dimethyl-5,16-dioxo-1,2,3,5,6,7,8,9,10,11,13a,14,14a,15,16,16a-hexadecahydrocyclopropa[e]pyrrolo[1,2-a][1,4]diazacyclopentadecin-6-yl)carbamate] | < 5.46 nM | < 5.46 nM | – | –
COc1cc(F)cc2c(O[C@@H]3C[C@H]4C(=O)N[C@]5(C(=O)NS(=O)(=O)C6CC6)C[C@H]5/C=C\CC[C@H](C)C[C@@H](C)[C@H](NC(=O)O[C@H](C)C(F)(F)F)C(=O)N4C3)nccc12 [Compound 3169, (R)-1,1,1-trifluoropropan-2-yl ((2R,6S,7R,9S,13aS,14aR,16aS,Z)-14a-((cyclopropylsulfonyl)carbamoyl)-2-((7-fluoro-5-methoxyisoquinolin-1-yl)oxy)-7,9-dimethyl-5,16-dioxo-1,2,3,5,6,7,8,9,10,11,13a,14,14a,15,16,16a-hexadecahydrocyclopropa[e]pyrrolo[1,2-a][1,4]diazacyclopentadecin-6-yl)carbamate] | 4.82 to 103 nM | < 5.46 nM | – | –
COc1cc(F)cc2c(O[C@@H]3C[C@H]4C(=O)N[C@]5(C(=O)NS(=O)(=O)C6CC6)C[C@H]5/C=C\CC[C@@H](C)C[C@@H](C)[C@H](NC(=O)O[C@H](C)C(F)(F)F)C(=O)N4C3)nccc12 [Compound 3170, (R)-1,1,1-trifluoropropan-2-yl ((2R,6S,7R,9R,13aS,14aR,16aS,Z)-14a-((cyclopropylsulfonyl)carbamoyl)-2-((7-fluoro-5-methoxyisoquinolin-1-yl)oxy)-7,9-dimethyl-5,16-dioxo-1,2,3,5,6,7,8,9,10,11,13a,14,14a,15,16,16a-hexadecahydrocyclopropa[e]pyrrolo[1,2-a][1,4]diazacyclopentadecin-6-yl)carbamate] | < 5.46 nM | < 5.46 nM | – | –
COc1cc(F)cc2c(O[C@@H]3C[C@H]4C(=O)N[C@]5(C(=O)NS(=O)(=O)C6CC6)C[C@H]5/C=C\CC[C@H](C)C[C@@H](C)[C@H](NC(=O)OCC5(C)CC5)C(=O)N4C3)nccc12 [Compound 3171, (1-methylcyclopropyl)methyl ((2R,6S,7R,9S,13aS,14aR,16aS,Z)-14a-((cyclopropylsulfonyl)carbamoyl)-2-((7-fluoro-5-methoxyisoquinolin-1-yl)oxy)-7,9-dimethyl-5,16-dioxo-1,2,3,5,6,7,8,9,10,11,13a,14,14a,15,16,16a-hexadecahydrocyclopropa[e]pyrrolo[1,2-a][1,4]diazacyclopentadecin-6-yl)carbamate] | 4.82 to 103 nM | < 5.46 nM | – | –
COc1cc(F)cc2c(O[C@@H]3C[C@H]4C(=O)N[C@]5(C(=O)NS(=O)(=O)C6CC6)C[C@H]5/C=C\CC[C@@H](C)C[C@@H](C)[C@H](NC(=O)OCC5(C)CC5)C(=O)N4C3)nccc12 [Compound 3172, (1-methylcyclopropyl)methyl ((2R,6S,7R,9R,13aS,14aR,16aS,Z)-14a-((cyclopropylsulfonyl)carbamoyl)-2-((7-fluoro-5-methoxyisoquinolin-1-yl)oxy)-7,9-dimethyl-5,16-dioxo-1,2,3,5,6,7,8,9,10,11,13a,14,14a,15,16,16a-hexadecahydrocyclopropa[e]pyrrolo[1,2-a][1,4]diazacyclopentadecin-6-yl)carbamate] | < 5.46 nM | < 5.46 nM | 1.04 nM | 1.18 nM
COc1cc(F)cc2c(O[C@@H]3C[C@H]4C(=O)N[C@]5(C(=O)NS(=O)(=O)C6(CF)CC6)C[C@H]5/C=C\CC[C@H](C)C[C@@H](C)[C@H](NC(=O)OC(C)(C)C)C(=O)N4C3)nccc12 [Compound 3173, tert-butyl ((2R,6S,7R,9S,13aS,14aR,16aS,Z)-2-((7-fluoro-5-methoxyisoquinolin-1-yl)oxy)-14a-(((1-(fluoromethyl)cyclopropyl)sulfonyl)carbamoyl)-7,9-dimethyl-5,16-dioxo-1,2,3,5,6,7,8,9,10,11,13a,14,14a,15,16,16a-hexadecahydrocyclopropa[e]pyrrolo[1,2-a][1,4]diazacyclopentadecin-6-yl)carbamate] | 4.82 to 103 nM | 4.82 to 103 nM | – | –
COc1cc(F)cc2c(O[C@@H]3C[C@H]4C(=O)N[C@]5(C(=O)NS(=O)(=O)C6(CF)CC6)C[C@H]5/C=C\CC[C@@H](C)C[C@@H](C)[C@H](NC(=O)OC(C)(C)C)C(=O)N4C3)nccc12 [Compound 3174, tert-butyl ((2R,6S,7R,9R,13aS,14aR,16aS,Z)-2-((7-fluoro-5-methoxyisoquinolin-1-yl)oxy)-14a-(((1-(fluoromethyl)cyclopropyl)sulfonyl)carbamoyl)-7,9-dimethyl-5,16-dioxo-1,2,3,5,6,7,8,9,10,11,13a,14,14a,15,16,16a-hexadecahydrocyclopropa[e]pyrrolo[1,2-a][1,4]diazacyclopentadecin-6-yl)carbamate] | < 5.46 nM | < 5.46 nM | – | –
COc1cc(F)cc2c(O[C@@H]3C[C@H]4C(=O)N[C@]5(C(=O)NS(=O)(=O)C6(CF)CC6)C[C@H]5/C=C\CC[C@H](C)C[C@@H](C)[C@H](NC(=O)OC(C)(C)C(F)(F)F)C(=O)N4C3)nccc12 [Compound 3175, 1,1,1-trifluoro-2-methylpropan-2-yl((2R,6S,7R,9S,13aS,14aR,16aS,Z)-2-((7-fluoro-5-methoxyisoquinolin-1-yl)oxy)-14a-(((1-(fluoromethyl)cyclopropyl)sulfonyl)carbamoyl)-7,9-dimethyl-5,16-dioxo-1,2,3,5,6,7,8,9,10,11,13a,14,14a,15,16,16a-hexadecahydrocyclopropa[e]pyrrolo[1,2-a][1,4]diazacyclopentadecin-6-yl)carbamate] | 4.82 to 103 nM | 4.82 to 103 nM | – | –
COc1cc(F)cc2c(O[C@@H]3C[C@H]4C(=O)N[C@]5(C(=O)NS(=O)(=O)C6(CF)CC6)C[C@H]5/C=C\CC[C@@H](C)C[C@@H](C)[C@H](NC(=O)OC(C)(C)C(F)(F)F)C(=O)N4C3)nccc12 [Compound 3176, 1,1,1-trifluoro-2-methylpropan-2-yl((2R,6S,7R,9R,13aS,14aR,16aS,Z)-2-((7-fluoro-5-methoxyisoquinolin-1-yl)oxy)-14a-(((1-(fluoromethyl)cyclopropyl)sulfonyl)carbamoyl)-7,9-dimethyl-5,16-dioxo-1,2,3,5,6,7,8,9,10,11,13a,14,14a,15,16,16a-hexadecahydrocyclopropa[e]pyrrolo[1,2-a][1,4]diazacyclopentadecin-6-yl)carbamate] | < 5.46 nM | < 5.46 nM | – | –
COc1cc(F)cc2c(O[C@@H]3C[C@H]4C(=O)N[C@]5(C(=O)NS(=O)(=O)C6(CF)CC6)C[C@H]5/C=C\CC[C@@H](C)C[C@@H](C)[C@H](NC(=O)O[C@H](C)C(F)(F)F)C(=O)N4C3)nccc12 [Compound 3178, (R)-1,1,1-trifluoropropan-2-yl ((2R,6S,7R,9R,13aS,14aR,16aS,Z)-2-((7-fluoro-5-methoxyisoquinolin-1-yl)oxy)-14a-(((1-(fluoromethyl)cyclopropyl)sulfonyl)carbamoyl)-7,9-dimethyl-5,16-dioxo-1,2,3,5,6,7,8,9,10,11,13a,14,14a,15,16,16a-hexadecahydrocyclopropa[e]pyrrolo[1,2-a][1,4]diazacyclopentadecin-6-yl)carbamate] | < 5.46 nM | < 5.46 nM | 3.16 nM | 0.61 nM
COc1cc(F)cc2c(O[C@@H]3C[C@H]4C(=O)N[C@]5(C(=O)NS(=O)(=O)C6(CF)CC6)C[C@H]5/C=C\CC[C@H](C)C[C@@H](C)[C@H](NC(=O)OC(C)(C)C(C)(F)F)C(=O)N4C3)nccc12 [Compound 3179, 3,3-difluoro-2-methylbutan-2-yl((2R,6S,7R,9S,13aS,14aR,16aS,Z)-2-((7-fluoro-5-methoxyisoquinolin-1-yl)oxy)-14a-(((1-(fluoromethyl)cyclopropyl)sulfonyl)carbamoyl)-7,9-dimethyl-5,16-dioxo-1,2,3,5,6,7,8,9,10,11,13a,14,14a,15,16,16a-hexadecahydrocyclopropa[e]pyrrolo[1,2-a][1,4]diazacyclopentadecin-6-yl)carbamate] | 4.82 to 103 nM | 4.82 to 103 nM | – | –
